Reference: the supplement of paper PMC10307832

What was measured:
Test in all cases: relative viability (nuclei count vs DMSO), 5 days (fraction); higher = more cells survive
BEN = system: BEN
Procedure, shortened: (§1)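 Relative viability divides the nuclei count in treated wells by that in vehicle wells. Lung cancer cell lines were seeded in 1536-well plates, dosed by pin tool the next day, and fixed and stained after 5 days in one step with final 0.05% Triton X-100, 1% formaldehyde and 1 ug/ml Hoechst. Dosing was a single drug or a fixed anchor-drug dose plus five library-drug doses (not always all listed) in √10 steps, and values are medians of duplicate plates imaged at 4×.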

COR-L 105 = system: COR-L 105
Procedure, shortened: as §1

EKVX = system: EKVX
Procedure, shortened: as §1

EMC-BAC-2 = system: EMC-BAC-2
Procedure, shortened: as §1

EPLC-272H = system: EPLC-272H
Procedure, shortened: as §1

HCC-78 = system: HCC-78
Procedure, shortened: as §1

HCC-827 = system: HCC-827
Procedure, shortened: as §1

LK-2 = system: LK-2
Procedure, shortened: as §1

LOU-NH91 = system: LOU-NH91
Procedure, shortened: as §1

LU99A = system: LU99A
Procedure, shortened: as §1

NCI-H1437 = system: NCI-H1437
Procedure, shortened: as §1

NCI-H1648 = system: NCI-H1648
Procedure, shortened: as §1

NCI-H1650 = system: NCI-H1650
Procedure, shortened: as §1

NCI-H1734 = system: NCI-H1734
Procedure, shortened: as §1

NCI-H1792 = system: NCI-H1792
Procedure, shortened: as §1

NCI-H2023 = system: NCI-H2023
Procedure, shortened: as §1

NCI-H2085 = system: NCI-H2085
Procedure, shortened: as §1

NCI-H358 = system: NCI-H358
Procedure, shortened: as §1

NCI-H522 = system: NCI-H522
Procedure, shortened: as §1

NCI-H647 = system: NCI-H647
Procedure, shortened: as §1

NCI-H650 = system: NCI-H650
Procedure, shortened: as §1

SK-LU-1 = system: SK-LU-1
Procedure, shortened: as §1

SW 900 = system: SW 900
Procedure, shortened: as §1

UMC-11 = system: UMC-11
Procedure, shortened: as §1

Oc1nc(-c2ccc(C(F)(F)F)cc2)nc2c1CSCC2 [XAV939] + CC(=O)Nc1cccc(-n2c(=O)n(C3CC3)c(=O)c3c(Nc4ccc(I)cc4F)n(C)c(=O)c(C)c32)c1 [Trametinib] (partner 0.02 µM)
relative viability (BEN; first compound 0.08 µM): 1.07
relative viability (BEN; first compound 0.253 µM): 1.01
relative viability (BEN; first compound 0.8 µM): 1.19
relative viability (BEN; first compound 2.53 µM): 0.88
relative viability (COR-L 105; first compound 0.08 µM): 0.43
relative viability (COR-L 105; first compound 0.253 µM): 0.433
relative viability (COR-L 105; first compound 0.8 µM): 0.4
relative viability (COR-L 105; first compound 2.53 µM): 0.414
relative viability (EKVX; first compound 0.08 µM): 0.346
relative viability (EKVX; first compound 0.253 µM): 0.317
relative viability (EKVX; first compound 0.8 µM): 0.311
relative viability (EKVX; first compound 2.53 µM): 0.245
relative viability (EMC-BAC-2; first compound 0.08 µM): 0.972
relative viability (EMC-BAC-2; first compound 0.253 µM): 0.875
relative viability (EMC-BAC-2; first compound 0.8 µM): 0.78
relative viability (EMC-BAC-2; first compound 2.53 µM): 0.671
relative viability (EPLC-272H; first compound 0.08 µM): 0.29
relative viability (EPLC-272H; first compound 0.253 µM): 0.251
relative viability (EPLC-272H; first compound 0.8 µM): 0.274
relative viability (EPLC-272H; first compound 2.53 µM): 0.23
relative viability (HCC-78; first compound 0.08 µM): 0.827
relative viability (HCC-78; first compound 0.253 µM): 0.642
relative viability (HCC-78; first compound 0.8 µM): 0.842
relative viability (HCC-78; first compound 2.53 µM): 0.535
relative viability (HCC-827; first compound 0.08 µM): 0.592
relative viability (HCC-827; first compound 0.253 µM): 0.504
relative viability (HCC-827; first compound 0.8 µM): 0.642
relative viability (HCC-827; first compound 2.53 µM): 0.514
relative viability (LK-2; first compound 0.08 µM): 0.788
relative viability (LK-2; first compound 0.253 µM): 0.792
relative viability (LK-2; first compound 0.8 µM): 0.703
relative viability (LK-2; first compound 2.53 µM): 0.535
relative viability (LOU-NH91; first compound 0.08 µM): 0.811
relative viability (LOU-NH91; first compound 0.253 µM): 0.769
relative viability (LOU-NH91; first compound 0.8 µM): 0.745
relative viability (LOU-NH91; first compound 2.53 µM): 0.742
relative viability (LU99A; first compound 0.08 µM): 0.678
relative viability (LU99A; first compound 0.253 µM): 0.521
relative viability (LU99A; first compound 0.8 µM): 0.524
relative viability (LU99A; first compound 2.53 µM): 0.542
relative viability (NCI-H1437; first compound 0.08 µM): 0.499
relative viability (NCI-H1437; first compound 0.253 µM): 0.407
relative viability (NCI-H1437; first compound 0.8 µM): 0.518
relative viability (NCI-H1437; first compound 2.53 µM): 0.29
relative viability (NCI-H1648; first compound 0.253 µM): 0.438
relative viability (NCI-H1648; first compound 0.8 µM): 0.606
relative viability (NCI-H1648; first compound 2.53 µM): 0.361
relative viability (NCI-H1650; first compound 0.08 µM): 0.568
relative viability (NCI-H1650; first compound 0.253 µM): 0.511
relative viability (NCI-H1650; first compound 0.8 µM): 0.591
relative viability (NCI-H1650; first compound 2.53 µM): 0.303
relative viability (NCI-H1734; first compound 0.08 µM): 0.77
relative viability (NCI-H1734; first compound 0.253 µM): 0.616
relative viability (NCI-H1734; first compound 0.8 µM): 0.593
relative viability (NCI-H1734; first compound 2.53 µM): 0.647
relative viability (NCI-H1792; first compound 0.08 µM): 0.492
relative viability (NCI-H1792; first compound 0.253 µM): 0.473
relative viability (NCI-H1792; first compound 0.8 µM): 0.448
relative viability (NCI-H1792; first compound 2.53 µM): 0.391
relative viability (NCI-H2023; first compound 0.08 µM): 0.625
relative viability (NCI-H2023; first compound 0.253 µM): 0.365
relative viability (NCI-H2023; first compound 0.8 µM): 0.473
relative viability (NCI-H2023; first compound 2.53 µM): 0.407
relative viability (NCI-H2085; first compound 0.08 µM): 0.587
relative viability (NCI-H2085; first compound 0.253 µM): 0.436
relative viability (NCI-H2085; first compound 0.8 µM): 0.432
relative viability (NCI-H2085; first compound 2.53 µM): 0.314
relative viability (NCI-H358; first compound 0.08 µM): 0.139
relative viability (NCI-H358; first compound 0.253 µM): 0.134
relative viability (NCI-H358; first compound 0.8 µM): 0.122
relative viability (NCI-H358; first compound 2.53 µM): 0.108
relative viability (NCI-H522; first compound 0.08 µM): 0.88
relative viability (NCI-H522; first compound 0.253 µM): 0.713
relative viability (NCI-H522; first compound 0.8 µM): 0.888
relative viability (NCI-H522; first compound 2.53 µM): 0.725
relative viability (NCI-H647; first compound 0.08 µM): 0.446
relative viability (NCI-H647; first compound 0.253 µM): 0.433
relative viability (NCI-H647; first compound 0.8 µM): 0.386
relative viability (NCI-H647; first compound 2.53 µM): 0.372
relative viability (NCI-H650; first compound 0.08 µM): 1.08
relative viability (NCI-H650; first compound 0.253 µM): 1.05
relative viability (NCI-H650; first compound 0.8 µM): 1
relative viability (NCI-H650; first compound 2.53 µM): 0.92
relative viability (SK-LU-1; first compound 0.08 µM): 0.537
relative viability (SK-LU-1; first compound 0.253 µM): 0.44
relative viability (SK-LU-1; first compound 0.8 µM): 0.543
relative viability (SK-LU-1; first compound 2.53 µM): 0.582
relative viability (SW 900; first compound 0.253 µM): 0.579
relative viability (SW 900; first compound 0.8 µM): 0.955
relative viability (SW 900; first compound 2.53 µM): 0.495
relative viability (UMC-11; first compound 0.08 µM): 0.692
relative viability (UMC-11; first compound 0.253 µM): 0.703
relative viability (UMC-11; first compound 0.8 µM): 0.879
relative viability (UMC-11; first compound 2.53 µM): 0.632
